Source: patent US11904020B2, “Bicyclic peptide ligands specific for TREM2” (Bicycle Tx Limited, priority 2021, dated 2024)
*1 amine or outer side, *2 acyl side, *3 side chain or, on linkers, in order; H or OH if unused. Where a SMILES comes first, the peptide text is derived from it. Bridges are numbered along the chain shown (N, C = ends). [ ]: non-standard residue; d: D form. TATA = O=C(CC[*:1])N1CN(C(=O)CC[*:2])CN(C(=O)CC[*:3])C1; 1Nal = N[C@@H](Cc1cccc2ccccc12)C(=O)O; Phe(2-Me) = Cc1ccccc1C[C@H](N)C(=O)O; 4Pal = N[C@@H](Cc1ccncc1)C(=O)O

target: TREM2 extracellular domain (ECD) (residues 19-131, C-terminally biotinylated, deglycosylated or glycosylated) (Homo sapiens, UniProt Q9NZC2); test: biochemical; conditions: Human BLI (Kd; nM) (deglycosylated), Table 4A; deglycosylated human TREM2 ECD; steady-state KD, 25° C.
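Also: Bio-layer interferometry in 50 mM HEPES pH 7.5 with 150 mM NaCl and 0.1% Tween, double-referenced with blank wells and unrelated-protein sensors, equilibrium response fitted versus concentration.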
Protocol: Bio-layer interferometry was performed on an Octet RED384® system (Sartorius) at 25° C. in a buffer containing 50 mM HEPES (pH 7.5), 150 mM NaCl and 0.1% Tween. TREM2 extracellular domain (ECD) (residues 19-131, C-terminally biotinylated, deglycosylated or glycosylated) was loaded onto Superstreptavidin biosensors (SSA, 18-5070, Sartorius) at 0.0125 mg/ml for 300 s. Bicycle peptides (10 mM in DMSO) were dispensed into 384-Well Tilted-Bottom Plates (18-5076, Sartorius) using an Echo liquid handler giving a final DMSO concentration of 0.125% in all wells including control wells. Association of defined concentrations of bicyclic peptide (0-12.5 μM, 1:2 dilutions for 7 points) was recorded over 120 s followed by dissociation in buffer over 120 s. Reference wells containing no bicycle peptides and reference sensors loaded with an unrelated protein (His-tagged MLLT3a) were subjected to the same assay protocol and double reference subtraction was used for processing to account for non-specific binding. Traces were analysed using Octet Software (Version 11.0). Association and dissociation curves were globally fit and the response at equilibrium (Req) plotted against concentration to obtain steady-state KD values.

TREM2 extracellular domain (ECD) (residues 19-131, C-terminally biotinylated, deglycosylated or glycosylated), sequence (Q9NZC2 19-131): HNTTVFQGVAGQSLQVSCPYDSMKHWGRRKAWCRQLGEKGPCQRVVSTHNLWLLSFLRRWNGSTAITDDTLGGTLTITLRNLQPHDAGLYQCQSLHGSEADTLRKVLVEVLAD

| Structure (SMILES) | Kd [nM] |
| --- | --- |
| C[C@H](N)C(=O)N[C@H]1CSCCC(=O)N2CN3CN(C2)C(=O)CCSC[C@H](NC(=O)[C@H](Cc2ccc(O)cc2)NC(=O)[C@H](CCC(=O)O)NC(=O)[C@H](C)NC1=O)C(=O)N[C@@H](Cc1ccccc1)C(=O)N[C@@H](Cc1c[nH]c2ccccc12)C(=O)N1CCC[C@H]1C(=O)N[C@@H](Cc1ccccc1)C(=O)N[C@@H](Cc1ccc(O)cc1)C(=O)N[C@@H](Cc1c[nH]cn1)C(=O)N[C@H](C(=O)N[C@@H](C)C(N)=O)CSCCC3=O [BCY18220, A-(SEQ ID NO: 24)-A] (H-ACAEYCFWPFYHCA-NH2; linker 2-6-13 via TATA) | 2000 |
| C[C@H](N)C(=O)N[C@H]1CSCCC(=O)N2CN3CN(C2)C(=O)CCSC[C@H](NC(=O)[C@H](Cc2ccc(O)cc2)NC(=O)[C@H](C)NC(=O)[C@H](CO)NC1=O)C(=O)N[C@@H](Cc1ccccc1)C(=O)N[C@@H](Cc1c[nH]c2ccccc12)C(=O)N1CCC[C@H]1C(=O)N[C@@H](Cc1ccccc1)C(=O)N[C@@H](Cc1ccc(O)cc1)C(=O)N[C@@H](Cc1c[nH]cn1)C(=O)N[C@H](C(=O)N[C@@H](C)C(N)=O)CSCCC3=O [BCY18221, A-(SEQ ID NO: 25)-A] (H-ACSAYCFWPFYHCA-NH2; linker 2-6-13 via TATA) | 1800 |
| C[C@H](N)C(=O)N[C@H]1CSCCC(=O)N2CN3CN(C2)C(=O)CCSC[C@H](NC(=O)[C@H](Cc2ccc(O)cc2)NC(=O)[C@H](CC(N)=O)NC(=O)[C@H]([C@@H](C)O)NC1=O)C(=O)N[C@@H](Cc1ccccc1)C(=O)N[C@@H](Cc1c[nH]c2ccccc12)C(=O)N1CCC[C@H]1C(=O)N[C@@H](Cc1ccccc1)C(=O)N[C@@H](Cc1ccc(O)cc1)C(=O)N[C@@H](CO)C(=O)N[C@H](C(=O)N[C@@H](C)C(N)=O)CSCCC3=O [BCY19781, A-(SEQ ID NO: 20)-A] (H-ACTNYCFWPFYSCA-NH2; linker 2-6-13 via TATA) | 1400 |
| NC(=O)[C@@H]1CSCCC(=O)N2CN3CN(C2)C(=O)CCSC[C@H](N)C(=O)N[C@@H](CO)C(=O)N[C@@H](CCC(=O)O)C(=O)N[C@@H](Cc2ccc(O)cc2)C(=O)N[C@@H](CSCCC3=O)C(=O)N[C@@H](Cc2ccccc2)C(=O)N[C@@H](Cc2c[nH]c3ccccc23)C(=O)N2CCC[C@H]2C(=O)N[C@@H](Cc2ccccc2)C(=O)N[C@@H](Cc2ccc(O)cc2)C(=O)N[C@@H](Cc2c[nH]cn2)C(=O)N1 [BCY18219, SEQ ID NO: 1] | 700 |
| CC(C)C[C@@H]1NC(=O)[C@H](Cc2ccccc2)NC(=O)[C@H](Cc2ccccc2)NC(=O)[C@@H]2CCCN2C(=O)[C@H](Cc2c[nH]c3ccccc23)NC(=O)[C@H](Cc2ccccc2)NC(=O)[C@@H]2CSCCC(=O)N3CN(CN(C3)C(=O)CCSC[C@@H](C(=O)N[C@@H](C)C(N)=O)NC1=O)C(=O)CCSC[C@H](NC(=O)[C@H](C)N)C(=O)N[C@@H](CO)C(=O)N[C@@H](CCC(=O)O)C(=O)N[C@@H](Cc1ccc(O)cc1)C(=O)N2 [BCY19776, A-(SEQ ID NO: 15)-A] (H-ACSEYCFWPFFLCA-NH2; linker 2-6-13 via TATA) | 750 |
| C[C@H](N)C(=O)N[C@H]1CSCCC(=O)N2CN3CN(C2)C(=O)CCSC[C@H](NC(=O)[C@H](Cc2ccc(O)cc2)NC(=O)[C@H](CC(N)=O)NC(=O)[C@H](CO)NC1=O)C(=O)N[C@@H](Cc1ccccc1)C(=O)N[C@@H](Cc1c[nH]c2ccccc12)C(=O)N1CCC[C@H]1C(=O)N[C@@H](Cc1ccccc1)C(=O)N[C@@H](Cc1c[nH]c2ccccc12)C(=O)N[C@@H](CCC(N)=O)C(=O)N[C@H](C(=O)N[C@@H](C)C(N)=O)CSCCC3=O [BCY19770, A-(SEQ ID NO: 12)-A] (H-ACSNYCFWPFWQCA-NH2; linker 2-6-13 via TATA; N-terminus and C-terminus assumed) | 1800 |
| CC(=O)N[C@H]1CSCCC(=O)N2CN3CN(C2)C(=O)CCSC[C@H](NC(=O)[C@H](Cc2ccc(O)cc2)NC(=O)[C@H](CCC(=O)O)NC(=O)[C@H](CO)NC1=O)C(=O)N[C@@H](Cc1ccccc1)C(=O)N[C@@H](Cc1cccc2ccccc12)C(=O)N1CCC[C@H]1C(=O)N[C@@H](Cc1ccccc1)C(=O)N[C@@H](Cc1ccc(O)cc1)C(=O)N[C@@H](Cc1c[nH]cn1)C(=O)N[C@H](C(N)=O)CSCCC3=O [BCY19669, Ac-(SEQ ID NO: 37)] (Ac-CSEYCF[1Nal]PFYHC-NH2; linker 1-5-12 via TATA) | 2000 |

same assay, conditions: Human BLI (Kd; nM) (deglycosylated), Table 4B; deglycosylated human TREM2 ECD; steady-state KD, 25° C.

| Structure (SMILES) | Kd [nM] |
| --- | --- |
| CC(=O)N[C@H]1CSCCC(=O)N2CN3CN(C2)C(=O)CCSC[C@H](NC(=O)[C@H](Cc2ccc(O)cc2)NC(=O)[C@H](CCC(=O)O)NC(=O)[C@H](CO)NC1=O)C(=O)N[C@@H](Cc1ccccc1)C(=O)N[C@@H](Cc1c[nH]c2ccccc12)C(=O)N1CCC[C@H]1C(=O)N[C@@H](Cc1ccccc1)C(=O)N[C@@H](Cc1ccc(O)cc1)C(=O)N[C@@H](CCC(N)=O)C(=O)N[C@H](C(N)=O)CSCCC3=O [BCY20572, Ac-(SEQ ID NO: 98)] (Ac-CSEYCFWPFYQC-NH2; linker 1-5-12 via TATA) | 1060 |
| CC(=O)N[C@H]1CSCCC(=O)N2CN3CN(C2)C(=O)CCSC[C@H](NC(=O)[C@H](Cc2ccc(O)cc2)NC(=O)[C@H](CCC(=O)O)NC(=O)[C@H](CO)NC1=O)C(=O)N[C@@H](Cc1ccccc1)C(=O)N[C@@H](Cc1c[nH]c2ccccc12)C(=O)N1CCC[C@H]1C(=O)N[C@@H](Cc1ccccc1)C(=O)N[C@@H](Cc1ccc(O)cc1)C(=O)N[C@@H](Cc1ccccc1)C(=O)N[C@H](C(N)=O)CSCCC3=O [BCY20576, Ac-(SEQ ID NO: 102)] (Ac-CSEYCFWPFYFC-NH2; linker 1-5-12 via TATA) | 1350 |
| CC(=O)N[C@H]1CSCCC(=O)N2CN3CN(C2)C(=O)CCSC[C@H](NC(=O)[C@H](Cc2ccc(O)cc2)NC(=O)[C@H](CCC(=O)O)NC(=O)[C@H](CO)NC1=O)C(=O)N[C@@H](Cc1ccccc1)C(=O)N[C@@H](Cc1ccccc1C)C(=O)N1CCC[C@H]1C(=O)N[C@@H](Cc1ccccc1)C(=O)N[C@@H](Cc1ccc(O)cc1)C(=O)N[C@@H](Cc1c[nH]cn1)C(=O)N[C@H](C(N)=O)CSCCC3=O [BCY20063, Ac-(SEQ ID NO: 61)] (Ac-CSEYCF[Phe(2-Me)]PFYHC-NH2; linker 1-5-12 via TATA) | 1300 |
| CC(=O)N[C@H]1CSCCC(=O)N2CN3CN(C2)C(=O)CCSC[C@H](NC(=O)[C@H](Cc2ccc(O)cc2)NC(=O)[C@H](CCC(=O)O)NC(=O)[C@H](CO)NC1=O)C(=O)N[C@@H](Cc1ccccc1)C(=O)N[C@@H](Cc1c[nH]c2ccccc12)C(=O)N1CCC[C@H]1C(=O)N[C@@H](Cc1ccccc1)C(=O)N[C@@H](CCC(N)=O)C(=O)N[C@@H](Cc1ccc(O)cc1)C(=O)N[C@H](C(N)=O)CSCCC3=O [BCY20220, Ac-(SEQ ID NO: 23)] (Ac-CSEYCFWPFQYC-NH2; linker 1-5-12 via TATA) | 1300 |
| CC(=O)N[C@H]1CSCCC(=O)N2CN3CN(C2)C(=O)CCSC[C@H](NC(=O)[C@H](Cc2ccc(O)cc2)NC(=O)[C@H](CCC(=O)O)NC(=O)[C@H](CO)NC1=O)C(=O)N[C@@H](Cc1ccccc1F)C(=O)N[C@@H](Cc1c[nH]c2ccccc12)C(=O)N1CCC[C@H]1C(=O)N[C@@H](Cc1ccccc1)C(=O)N[C@@H](Cc1ccc(O)cc1)C(=O)N[C@@H](Cc1c[nH]cn1)C(=O)N[C@H](C(N)=O)CSCCC3=O [BCY20051, Ac-(SEQ ID NO: 51)] | 2030 |
| CC(=O)N[C@H]1CSCCC(=O)N2CN3CN(C2)C(=O)CCSC[C@H](NC(=O)[C@H](Cc2ccc(O)cc2)NC(=O)[C@H](CCC(=O)O)NC(=O)[C@H](CO)NC1=O)C(=O)N[C@@H](Cc1ccccc1)C(=O)N[C@@H](Cc1c[nH]c2ccccc12)C(=O)N1CCC[C@H]1C(=O)N[C@@H](Cc1ccccc1)C(=O)N[C@@H](Cc1ccc(O)cc1)C(=O)N[C@@H](CC(N)=O)C(=O)N[C@H](C(N)=O)CSCCC3=O [BCY20083, Ac-(SEQ ID NO: 78)] (Ac-CSEYCFWPFYNC-NH2; linker 1-5-12 via TATA) | 1830 |
| CC(=O)N[C@H]1CSCCC(=O)N2CN3CN(C2)C(=O)CCSC[C@H](NC(=O)[C@H](Cc2ccc(O)cc2)NC(=O)[C@H](CCC(=O)O)NC(=O)[C@H](CO)NC1=O)C(=O)N[C@@H](Cc1ccccc1)C(=O)N[C@@H](Cc1c[nH]c2ccccc12)C(=O)N1CCCC[C@H]1C(=O)N[C@@H](Cc1ccccc1)C(=O)N[C@@H](Cc1ccc(O)cc1)C(=O)N[C@@H](Cc1c[nH]cn1)C(=O)N[C@H](C(N)=O)CSCCC3=O [BCY20069, Ac-(SEQ ID NO: 62)] | 1460 |
| CC(=O)N[C@H]1CSCCC(=O)N2CN3CN(C2)C(=O)CCSC[C@H](NC(=O)[C@H](Cc2ccc(O)cc2)NC(=O)[C@H](CCC(=O)O)NC(=O)[C@H](CO)NC1=O)C(=O)N[C@@H](Cc1cccc2ccccc12)C(=O)N[C@@H](Cc1c[nH]c2ccccc12)C(=O)N1CCC[C@H]1C(=O)N[C@@H](Cc1ccccc1)C(=O)N[C@@H](Cc1ccc(O)cc1)C(=O)N[C@@H](Cc1c[nH]cn1)C(=O)N[C@H](C(N)=O)CSCCC3=O [BCY20054, Ac-(SEQ ID NO: 49)] (Ac-CSEYC[1Nal]WPFYHC-NH2; linker 1-5-12 via TATA) | 2540 |
| CC(=O)N[C@H]1CSCCC(=O)N2CN3CN(C2)C(=O)CCSC[C@H](NC(=O)[C@H](Cc2ccc(O)cc2)NC(=O)[C@H](CCC(=O)O)NC(=O)[C@H](CO)NC1=O)C(=O)N[C@@H](Cc1ccccc1)C(=O)N[C@@H](Cc1c[nH]c2ccccc12)C(=O)N1CCC[C@H]1C(=O)N[C@@H](Cc1ccncc1)C(=O)N[C@@H](Cc1ccc(O)cc1)C(=O)N[C@@H](Cc1c[nH]cn1)C(=O)N[C@H](C(N)=O)CSCCC3=O [BCY20569, Ac-(SEQ ID NO: 95)] (Ac-CSEYCFWP[4Pal]YHC-NH2; linker 1-5-12 via TATA) | 3800 |
| CC(=O)N[C@H]1CSCCC(=O)N2CN3CN(C2)C(=O)CCSC[C@H](NC(=O)[C@H](Cc2ccc(O)cc2)NC(=O)[C@H](CCC(=O)O)NC(=O)[C@@H](C)NC1=O)C(=O)N[C@@H](Cc1ccccc1)C(=O)N[C@@H](Cc1c[nH]c2ccccc12)C(=O)N1CCC[C@H]1C(=O)N[C@@H](Cc1ccccc1)C(=O)N[C@@H](Cc1ccc(O)cc1)C(=O)N[C@@H](Cc1c[nH]cn1)C(=O)N[C@H](C(N)=O)CSCCC3=O [BCY20086, Ac-(SEQ ID NO: 79)] | 17900 |

same assay, conditions: Human BLI (Kd; nM) glycosylated, Table 4B; glycosylated human TREM2 ECD

| Structure (SMILES) | Kd [nM] |
| --- | --- |
| CC(=O)N[C@H]1CSCCC(=O)N2CN3CN(C2)C(=O)CCSC[C@H](NC(=O)[C@H](Cc2ccc(O)cc2)NC(=O)[C@H](CCC(=O)O)NC(=O)[C@H](CO)NC1=O)C(=O)N[C@@H](Cc1cccc2ccccc12)C(=O)N[C@@H](Cc1c[nH]c2ccccc12)C(=O)N1CCC[C@H]1C(=O)N[C@@H](Cc1ccccc1)C(=O)N[C@@H](Cc1ccc(O)cc1)C(=O)N[C@@H](Cc1c[nH]cn1)C(=O)N[C@H](C(N)=O)CSCCC3=O [BCY20054, Ac-(SEQ ID NO: 49)] (Ac-CSEYC[1Nal]WPFYHC-NH2; linker 1-5-12 via TATA) | 1830 |
